Laboratory results: patent US11903992B2, “Composition comprising lidocaine, l-carnosine and dexpanthenol” (Cellix Bio Private Limited, priority 2021, dated 2024)

Key:
[1] = pH of the formulation (pH meter); format: physicochemical; conditions: during development of the formulation; tends to increase degradation of lidocaine
[2] = Stability observations during development of the formulation; format: physicochemical; conditions: during development of the oral rinse formulation
Text: In an embodiment, the composition is formulated as an oral rinse formulation. It could also be noted during development of the formulation that L-Carnosine tends to increase the pH of the composition to about 8.5, which tend to increase the degradation of lidocaine. […] During the experimentation, it could be noted that presence of a buffer (e.g. a citrate buffer) and an anti-oxidant (e.g. sodium metabisulfite) in the composition, while maintaining pH of the resultant composition/formulation around 6.5±1 (i.e. ranging from about 5.5 to about 7.5), preferably at 6.5±0.5 and more preferably, at 6.5±0.2 affords dramatic improvement in the shelf life of the composition/formulation.

SMILES | pH of the composition as increased by L-Carnosine [1] | stability observation of the ingredient [2]
NCCC(=O)N[C@@H](Cc1cnc[nH]1)C(=O)O [L-Carnosine] | about 8.5 | sensitive to oxygen tend to degrade
CC(C)(CO)[C@@H](O)C(=O)NCCCO [Dexpanthenol] |  | requires neutral pH for stability
